Reference: patent publication US8546404B2, “Compounds that are ERK inhibitors” (Merck Sharp & Dohme, priority 2005, dated 2013)
Where “and” joins values, the source holds several entries; their conditions need not be identical. Equal values may be shown once.

Molecular target: fully phosphorylated, active Mouse ERK2 protein (Mus musculus (Mouse), UniProt P63085)
Test: Active ERK2 Assay (IMAP format)
Type: biochemical
Conditions: read-out: AERK2 IC50
Description: Activated ERK2 activity was also determined in the IMAP assay format using the procedure outlined above. […] Reactions proceeded for 30 minutes before termination by addition of 60 μl IMAP detection beads in binding buffer. Plates were read as above after 30 minute binding equilibration.

Sequence of fully phosphorylated, active Mouse ERK2 protein (P63085 whole entry): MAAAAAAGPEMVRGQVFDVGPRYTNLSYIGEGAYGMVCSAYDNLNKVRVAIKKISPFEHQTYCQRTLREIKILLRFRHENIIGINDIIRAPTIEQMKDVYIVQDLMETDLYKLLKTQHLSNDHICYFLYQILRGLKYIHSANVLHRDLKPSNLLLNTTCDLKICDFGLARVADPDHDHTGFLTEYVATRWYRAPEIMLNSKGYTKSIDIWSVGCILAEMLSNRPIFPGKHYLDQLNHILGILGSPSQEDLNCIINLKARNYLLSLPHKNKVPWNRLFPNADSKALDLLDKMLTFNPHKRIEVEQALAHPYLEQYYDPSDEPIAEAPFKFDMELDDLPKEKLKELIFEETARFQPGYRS

Row | Compound | IC50
1 | C#CCC1(C(=O)Nc2ccc3[nH]nc(-c4ccncc4)c3c2)CCN(CC(=O)N2CCN(c3ccc(-c4ncccn4)cc3)CC2)C1 (stereo not shown) [Example 292] | 0.16 to 18 nM
2 | CS(=O)(=O)[C@@]1(C(=O)Nc2ccc3[nH]nc(-c4ccnc(C5CC5)c4)c3c2)CCN(CC(=O)N2CCC(c3ccc(-c4ncccn4)cc3)CC2)C1 [Example 635] | 0.16 to 18 nM
3 | CCCC1(C(=O)Nc2ccc3[nH]nc(-c4ccncc4)c3c2)CCN(CC(=O)N2CCN(c3ccc(-c4ncccn4)cc3)CC2)C1 (stereo not shown) [Example 290] | 0.16 to 18 nM
4 | O=C(Nc1ccc2[nH]nc(-c3ccncc3)c2c1)[C@@H]1CCN(CC(=O)N2CCc3ncccc3C2)C1 [Example 333] | 0.16 to 18 nM
5 | O=C(Nc1ccc2[nH]nc(-c3ccc(F)cc3)c2c1)[C@@H]1CCN(CC(=O)N2C[C@@H]3C[C@H]2CN3c2ccc(-c3ncccn3)cc2)C1 [Example 184] | 0.16 to 18 nM and 0.16 to 1.5 nM
6 | CO[C@@]1(C(=O)Nc2ccc3[nH]nc(-c4ccc(F)c(CO)c4)c3c2)CCN(CC(=O)N2CCC(c3ccc(-c4ncccn4)cc3)CC2)C1 [Example 794] | 0.16 to 18 nM
7 | Cc1cnc(-c2ccc(N3CCN(C(=O)CN4CCC(NC=O)(C(=O)Nc5ccc6[nH]nc(-c7ccc(F)cc7)c6c5)C4)[C@H](C)C3)cc2)nc1 (stereo in doubt) [Example 362, 3-Formylamino-1-(2-{2-methyl-4-[4-(5-methyl-pyrimidin-2-yl)-phenyl]-piperazin-1-yl}-2-oxo-ethyl)-pyrrolidine-3-carboxylic acid [3-(4-fluoro-phenyl)-1H-indazol-5-yl]-amide] | 0.16 to 18 nM
8 | CO[C@@]1(C(=O)Nc2ccc3[nH]nc(-c4ccc(F)cc4)c3c2)CCN(CC(=O)N2CC=C(c3ccc(-c4ncccn4)s3)CC2)C1 [Example 737] | 0.16 to 18 nM
9 | CS[C@@]1(C(=O)Nc2ccc3[nH]nc(-c4ccnc(C5CC5)c4)c3c2)CCN(CC(=O)N2CC=C(c3ccc(-c4ncccn4)cc3)CC2)C1 [Example 639] | 0.16 to 18 nM
10 | O=C(CN1CCC(CF)(C(=O)Nc2ccc3[nH]nc(-c4ccc(F)cc4)c3c2)C1)N1C[C@@H]2C[C@H]1CN2c1ccc(-c2ncccn2)cc1 (stereo partly shown) [Example 251] | 0.16 to 18 nM
11 | CO[C@@]1(C(=O)Nc2ccc3[nH]nc(-c4ccc(F)cc4)c3c2)CCN(CC(=O)N2CC=C(c3ccc(-c4ncc(F)cn4)c(F)c3)CC2)C1 [Example 661] | 0.16 to 18 nM
12 | CO[C@@]1(C(=O)Nc2ccc3[nH]nc(-c4ccc(F)cc4)c3c2)CCN(CC(=O)N2CC=C(c3ncc(-c4ncccn4)s3)CC2)C1 [Example 776] | 0.16 to 18 nM
13 | CNC(=O)c1n[nH]c2ccc(NC(=O)[C@@H]3CCN(CC(=O)N4CC=C(c5nccs5)CC4)C3)cc12 [Example 168] | 0.16 to 18 nM
14 | O=C(Nc1ccc2[nH]nc(-c3ccc(F)cc3)c2c1)C1CCN(CC(=O)N2CCN(c3ccc(-c4ncccn4)cn3)CC2)C1 (stereo not shown) [Example 98] | 0.16 to 18 nM
15 | CS(=O)(=O)[C@@]1(C(=O)Nc2ccc3[nH]nc(-c4ccnc(C5CC5)c4)c3c2)CCN(CC(=O)N2CC=C(c3ccc(-c4ncccn4)cc3)CC2)C1 [Example 634] | 0.16 to 18 nM
16 | CNC(=O)c1n[nH]c2ccc(NC(=O)C3CCN(CC(=O)N4CCC(C#Cc5ncccn5)CC4)C3)cc12 (stereo not shown) [Example 142, 5-({1-[2-oxo-2-(4-pyrimidin-2-ylethynyl-piperidin-1-yl)-ethyl]-pyrrolidine-3-carbonyl}-amino)-1H-indazole-3-carboxylic acid methylamide] | 0.16 to 18 nM
17 | CO[C@@]1(C(=O)Nc2ccc3[nH]nc(-c4cn[nH]c4)c3c2)CCN(CC(=O)N2CC=C(c3ccc(-c4ncccn4)cc3)CC2)C1 [Example 796] | 0.16 to 18 nM
18 | CCNc1nnc(-c2ccc(C3CCN(C(=O)CN4CC[C@@](OC)(C(=O)Nc5ccc6[nH]nc(-c7ccc(F)cc7)c6c5)C4)CC3)cc2)o1 (stereo in doubt) [Example 623, 1-(2-{4-[4-(5-Ethylamino-[1,3,4]oxadiazol-2-yl)-phenyl]-piperidin-1-yl}-2-oxo-ethyl)-3-methoxy-pyrrolidine-3-carboxylic acid [3-(4-fluoro-phenyl)-1H-indazol-5-yl]-amide] | 0.16 to 18 nM
19 | O=C(CN1CCC(CF)(C(=O)Nc2ccc3[nH]nc(-c4ccncc4)c3c2)C1)N1CCN(c2nccs2)CC1 (stereo not shown) [Example 282] | 0.16 to 18 nM
20 | COCCOc1ccc(-c2n[nH]c3ccc(NC(=O)[C@]4(OC)CCN(CC(=O)N5CC=C(c6ccc(-c7ncccn7)cc6F)CC5)C4)cc23)cc1 [Example 767] | 0.16 to 18 nM
21 | C=Cc1cnc(N2C[C@@H]3C[C@H]2CN3C(=O)CN2CC[C@@H](C(=O)Nc3ccc4[nH]nc(-c5ccncc5)c4c3)C2)nc1 [Example 250] | 0.16 to 18 nM
22 | CO[C@@]1(C(=O)Nc2ccc3[nH]nc(-c4ccc(F)c(OCCO)c4)c3c2)CCN(CC(=O)N2CC=C(c3ccc(-c4ncccn4)cc3)CC2)C1 [Example 755] | 0.16 to 18 nM
23 | CCOC1(C(=O)Nc2ccc3[nH]nc(-c4ccnc(C)c4)c3c2)CCN(CC(=O)N2CCN(c3ccc(-c4ncccn4)cc3)CC2)C1 (stereo not shown) [Example 343] | 0.16 to 18 nM
24 | O=C(Nc1ccc2[nH]nc(-c3c[nH]cn3)c2c1)[C@@H]1CCN(CC(=O)N2CCN(c3ccc(-c4ncccn4)cc3)CC2)C1 (stereo in doubt) [Example 61, 1-{2-Oxo-2-[4-(4-pyrimidin-2-yl-phenyl)-piperazin-1-yl]-ethyl}-pyrrolidine-3-carboxylic acid [3-(1H-imidazol-4-yl)-1H-indazol-5-yl]-amide] | 0.16 to 18 nM
25 | CCc1cc(-c2n[nH]c3ccc(NC(=O)[C@]4(OC)CCN(CC(=O)N5CC=C(c6nccs6)CC5)C4)cc23)ccn1 [Example 802] | 0.16 to 18 nM

Row | Compound | IC50
26 | CO[C@@]1(C(=O)Nc2ccc3[nH]nc(-c4ccnc(C(F)F)c4)c3c2)CCN(CC(=O)N2CCC(C)(c3ccc(-c4ncccn4)cc3)CC2)C1 [Example 679] | 0.16 to 18 nM
27 | COCCOc1ccc(-c2n[nH]c3ccc(NC(=O)[C@]4(OC)CCN(CC(=O)N5CC=C(c6ncc(-c7ncccn7)s6)CC5)C4)cc23)cc1 [Example 765] | 0.16 to 18 nM
28 | CCCCNC(=O)c1n[nH]c2ccc(NC(=O)[C@@H]3CCN(CC(=O)N4CCN(c5ccc(-c6ncccn6)cc5)CC4)C3)cc12 [Example 86] | 0.16 to 18 nM
29 | COCc1cc(-c2n[nH]c3ccc(NC(=O)[C@]4(OC)CCN(CC(=O)N5CC=C(c6ccc(-c7ncccn7)cc6F)CC5)C4)cc23)ccc1F [Example 747] | 0.16 to 18 nM
30 | CO[C@@]1(C(=O)Nc2ccc3[nH]nc(-c4ccc(F)c(NCCO)c4)c3c2)CCN(CC(=O)N2CC=C(c3ccc(-c4ncccn4)cc3)CC2)C1 [Example 757] | 0.16 to 18 nM
31 | COc1cc(C2=CCN(C(=O)CN3CC[C@@](OC)(C(=O)Nc4ccc5[nH]nc(-c6ccnc(C7CC7)c6)c5c4)C3)CC2)ccc1-c1ncccn1 [Example 673] | 0.16 to 18 nM
32 | COCCOc1ccc(-c2n[nH]c3ccc(NC(=O)[C@]4(OC)CCN(CC(=O)N5CCC(c6ccc(-c7ncccn7)cc6)CC5)C4)cc23)cc1 [Example 764] | 0.16 to 18 nM
33 | CO[C@@]1(C(=O)Nc2ccc3[nH]nc(-c4ccnc(C(F)F)c4)c3c2)CCN(CC(=O)N2CC=C(c3ccc(-c4ncccn4)cc3)CC2)C1 [Example 785] | 0.16 to 18 nM
34 | CO[C@@]1(C(=O)Nc2ccc3[nH]nc(-c4ccnc(C(F)(F)F)c4)c3c2)CCN(CC(=O)N2CCC(c3ccc(-c4ncccn4)cc3)CC2)C1 [Example 788] | 0.16 to 18 nM
35 | C=CCC1(C(=O)Nc2ccc3[nH]nc(-c4ccncc4)c3c2)CCN(CC(=O)N2CCN(c3ccc(-c4cnccn4)cc3)CC2)C1 (stereo not shown) [Example 261] | 0.16 to 18 nM and 0.16 to 1.5 nM
36 | COCCOc1cc(-c2n[nH]c3ccc(NC(=O)[C@]4(OC)CCN(CC(=O)N5CC=C(c6ccc(-c7ncccn7)cc6)CC5)C4)cc23)ccc1F [Example 741] | 0.16 to 18 nM
37 | COCCOc1ccc(-c2n[nH]c3ccc(NC(=O)[C@]4(OC)CCN(CC(=O)N5CC=C(c6ccc(-c7ncccn7)cc6)CC5)C4)cc23)cc1F [Example 749] | 0.16 to 18 nM
38 | CC(=O)N/N=C(\C)C1(C(=O)Nc2ccc3[nH]nc(-c4ccc(F)cc4)c3c2)CCN(CC(=O)N2CCN(c3ccc(-c4ncccn4)cn3)C[C@H]2C)C1 (stereo in doubt) [Example 358, 3-[1-(Acetyl-hydrazono)-ethyl]-1-{2-[2-methyl-4-(5-pyrimidin-2-yl-pyridin-2-yl)-piperazin-1-yl]-2-oxo-ethyl}-pyrrolidine-3-carboxylic acid [3-(4-fluoro-phenyl)-1H-indazol-5-yl]-amide] | 0.16 to 18 nM
39 | C[C@@H]1CN(c2ccc(-c3ncccn3)cn2)CCN1C(=O)CN1CCC(C(=O)Nc2ccc3[nH]nc(-c4ccc(F)cc4)c3c2)C1 (stereo partly shown) [Example 100] | 0.16 to 18 nM and 0.16 to 1.5 nM
40 | COc1cc(C2CCN(C(=O)CN3CC[C@@](OC)(C(=O)Nc4ccc5[nH]nc(-c6ccnc(C7CC7)c6)c5c4)C3)CC2)ccc1-c1ncccn1 [Example 672] | 0.16 to 18 nM
41 | CO[C@@]1(C(=O)Nc2ccc3[nH]nc(C4CCOCC4)c3c2)CCN(CC(=O)N2CC=C(c3ccc(-c4ncccn4)cc3)CC2)C1 [Example 779] | 0.16 to 18 nM
42 | COCC1(C(=O)Nc2ccc3[nH]nc(-c4ccncc4)c3c2)CCN(CC(=O)N2CCN(c3ccc(-c4ncccn4)cc3)CC2)C1 (stereo not shown) [Example 264] | 0.16 to 18 nM
43 | CO[C@@]1(C(=O)Nc2ccc3[nH]nc(-c4ccnc(C(F)F)c4)c3c2)CCN(CC(=O)N2CCC(c3ccc(-c4ncccn4)cc3)CC2)C1 [Example 786] | 0.16 to 18 nM
44 | CS[C@@]1(C(=O)Nc2ccc3[nH]nc(-c4ccnc(C5CC5)c4)c3c2)CCN(CC(=O)N2CC=C(c3ccc(-c4ncccn4)cc3F)CC2)C1 [Example 651] | 0.16 to 18 nM
45 | CO[C@@]1(C(=O)Nc2ccc3[nH]nc(-c4ccc(F)cc4)c3c2)CCN(CC(=O)N2CC=C(c3ccc(-c4ncccn4)cc3F)CC2)C1 [Example 606] | 0.16 to 18 nM
46 | CO[C@@]1(C(=O)Nc2ccc3[nH]nc(-c4ccnc(C(F)(F)F)c4)c3c2)CCN(CC(=O)N2CC=C(c3ccc(-c4ncccn4)cc3F)CC2)C1 [Example 682] | 0.16 to 18 nM
47 | CO[C@@]1(C(=O)Nc2ccc3[nH]nc(-c4ccc(F)c(CO)c4)c3c2)CCN(CC(=O)N2CC=C(c3ccc(-c4ncccn4)cc3)CC2)C1 [Example 787] | 0.16 to 1.5 nM
48 | CO[C@@]1(C(=O)Nc2ccc3[nH]nc(-c4cc[n+]([O-])c(C5CC5)c4)c3c2)CCN(CC(=O)N2CC=C(c3ccc(-c4ncccn4)cc3)CC2)C1 [Example 670] | 0.16 to 18 nM
49 | O=C(Nc1ccc2[nH]nc(-c3ccncc3)c2c1)[C@@H]1CCN(CC(=O)N2CCN(c3ccc(-c4ncc(F)cn4)cc3)CC2)C1 [Example 186] | 0.16 to 18 nM and 0.16 to 1.5 nM and 0.78 nM
